Measurements reported in US12083124B2 (Incyte Corporation, priority 2019, dated 2024).
Read-outs that look alike come from different tables or passages of the source.

How the values were obtained:
[1] = target: wild-type un-phosphorylated FGFR3 (Homo sapiens, UniProt P22607); assay: FGFR Enzymatic Assay (FRET peptide phosphorylation), FGFR3
[2] = target: wild-type un-phosphorylated FGFR1 (Homo sapiens, UniProt P11362); assay: FGFR Enzymatic Assay (FRET peptide phosphorylation), FGFR1; details: pre-incubated for 4 hours
Procedure: (§1) The inhibitor potency of the exemplified compounds was determined in an enzyme discontinuous assay that measures peptide phosphorylation using FRET measurements to detect product formation. Inhibitors were serially diluted in DMSO and a volume of 0.2 μL was transferred to the wells of a 384-well plate. […] Appropriate controls (enzyme blank and enzyme with no inhibitor) were included on the plate. […] The 10 μL/well reaction concentration of the peptide substrate was 500 nM whereas the ATP concentration was maintained near or below the ATP Km. The ATP Km values were pre-determined in a separate series of experiments. The reaction plate was incubated at 25° C. for 1 hr and the reactions were ended with the addition of 5 μL/well of quench solution (50 mM Tris, 150 mM NaCl, 0.5 mg/mL BSA, pH 7.8; 45 mM EDTA, 600 nM staurosporin, with Perkin Elmer Lance Reagents at 3.75 nM Eu-antibody PY20 and 180 nM APC-Streptavidin). The plate was allowed to equilibrate for ˜10 minutes at ambient temperature before scanning on a PheraStar plate reader (BMG Labtech) instrument.
(§2) Either GraphPad prism or XLfit was used to analyze the data. The IC50 values were derived by fitting the data to a four parameter logistic equation producing a sigmoidal dose-response curve with a variable Hill coefficient. Prism equation: Y=Bottom+(Top-Bottom)/(1+10^((Log IC50-X)*Hill slope)); XLfit equation: Y=(A+((B−A)/(1+((X/C)^D)))) where X is the logarithm of inhibitor concentration and Y is the response.
(§3) GraphPad prism3 was used to analyze the data. The IC50 values were derived by fitting the data to the equation for a sigmoidal dose-response with a variable slope. Y=Bottom+(Top-Bottom)/(1+10^((Log IC50-X)*Hill Slope)) where X is the logarithm of concentration and Y is the response.
(§4) The data in Table 1 was measured in wild-type un-phosphorylated FGFR1, FGFR2, FGFR3, and FGFR4 proteins.

[3] = target: wild-type un-phosphorylated FGFR2 (Homo sapiens, UniProt P21802); assay: FGFR Enzymatic Assay (FRET peptide phosphorylation), FGFR2
Procedure: as §1, §2, §3, §4

[4] = FGFR1, wild-type un-phosphorylated FGFR1
[5] = read-out: FGFR1, wild-type un-phosphorylated FGFR1
[6] = read-out: FGFR3, wild-type un-phosphorylated FGFR3, pre-incubated for 4 hours
[7] = read-out: FGFR2, wild-type un-phosphorylated FGFR2, pre-incubated for 4 hours

Sequence of wild-type un-phosphorylated FGFR2 (P21802 22-821): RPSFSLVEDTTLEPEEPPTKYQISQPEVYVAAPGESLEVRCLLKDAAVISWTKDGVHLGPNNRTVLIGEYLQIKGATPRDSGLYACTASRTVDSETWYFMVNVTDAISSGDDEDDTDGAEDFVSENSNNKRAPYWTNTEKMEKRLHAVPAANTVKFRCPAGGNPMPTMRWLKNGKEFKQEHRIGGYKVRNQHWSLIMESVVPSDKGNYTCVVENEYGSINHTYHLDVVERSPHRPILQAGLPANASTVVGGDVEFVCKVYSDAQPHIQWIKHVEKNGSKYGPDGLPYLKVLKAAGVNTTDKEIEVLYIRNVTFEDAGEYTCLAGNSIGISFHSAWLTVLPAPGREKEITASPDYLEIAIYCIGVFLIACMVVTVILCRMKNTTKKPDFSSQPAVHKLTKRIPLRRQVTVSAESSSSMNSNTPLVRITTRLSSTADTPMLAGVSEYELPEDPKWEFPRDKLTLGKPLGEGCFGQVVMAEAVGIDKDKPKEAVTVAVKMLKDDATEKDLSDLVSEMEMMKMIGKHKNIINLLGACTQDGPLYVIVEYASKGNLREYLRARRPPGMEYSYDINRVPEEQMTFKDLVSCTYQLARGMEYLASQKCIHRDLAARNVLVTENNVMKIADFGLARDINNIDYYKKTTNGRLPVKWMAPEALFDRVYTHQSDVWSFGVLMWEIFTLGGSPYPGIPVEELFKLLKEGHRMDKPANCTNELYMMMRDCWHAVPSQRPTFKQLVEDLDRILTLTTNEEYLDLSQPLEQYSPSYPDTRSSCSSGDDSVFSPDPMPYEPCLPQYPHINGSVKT
Sequence of wild-type un-phosphorylated FGFR3 (P22607 23-806): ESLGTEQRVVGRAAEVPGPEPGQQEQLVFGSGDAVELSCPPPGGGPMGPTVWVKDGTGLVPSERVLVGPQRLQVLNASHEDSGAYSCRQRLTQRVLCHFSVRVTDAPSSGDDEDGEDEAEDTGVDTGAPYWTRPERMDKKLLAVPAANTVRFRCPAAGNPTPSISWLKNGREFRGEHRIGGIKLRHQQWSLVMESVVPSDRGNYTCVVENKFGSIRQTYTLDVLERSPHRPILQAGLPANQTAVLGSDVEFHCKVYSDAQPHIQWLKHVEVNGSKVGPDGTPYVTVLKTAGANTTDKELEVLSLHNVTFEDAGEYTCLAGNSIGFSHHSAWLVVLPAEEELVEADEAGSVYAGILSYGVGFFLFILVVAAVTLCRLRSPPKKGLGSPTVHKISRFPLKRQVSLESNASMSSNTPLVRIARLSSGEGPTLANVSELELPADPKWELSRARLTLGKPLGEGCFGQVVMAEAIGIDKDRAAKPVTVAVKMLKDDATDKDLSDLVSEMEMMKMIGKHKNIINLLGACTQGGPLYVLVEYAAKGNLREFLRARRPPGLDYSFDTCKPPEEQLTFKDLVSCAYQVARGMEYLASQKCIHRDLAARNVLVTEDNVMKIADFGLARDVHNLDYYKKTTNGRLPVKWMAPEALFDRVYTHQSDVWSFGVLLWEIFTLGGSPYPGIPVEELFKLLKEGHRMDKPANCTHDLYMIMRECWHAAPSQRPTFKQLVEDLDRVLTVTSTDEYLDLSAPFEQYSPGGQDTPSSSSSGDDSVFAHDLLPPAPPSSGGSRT
Sequence of wild-type un-phosphorylated FGFR1 (P11362 22-822): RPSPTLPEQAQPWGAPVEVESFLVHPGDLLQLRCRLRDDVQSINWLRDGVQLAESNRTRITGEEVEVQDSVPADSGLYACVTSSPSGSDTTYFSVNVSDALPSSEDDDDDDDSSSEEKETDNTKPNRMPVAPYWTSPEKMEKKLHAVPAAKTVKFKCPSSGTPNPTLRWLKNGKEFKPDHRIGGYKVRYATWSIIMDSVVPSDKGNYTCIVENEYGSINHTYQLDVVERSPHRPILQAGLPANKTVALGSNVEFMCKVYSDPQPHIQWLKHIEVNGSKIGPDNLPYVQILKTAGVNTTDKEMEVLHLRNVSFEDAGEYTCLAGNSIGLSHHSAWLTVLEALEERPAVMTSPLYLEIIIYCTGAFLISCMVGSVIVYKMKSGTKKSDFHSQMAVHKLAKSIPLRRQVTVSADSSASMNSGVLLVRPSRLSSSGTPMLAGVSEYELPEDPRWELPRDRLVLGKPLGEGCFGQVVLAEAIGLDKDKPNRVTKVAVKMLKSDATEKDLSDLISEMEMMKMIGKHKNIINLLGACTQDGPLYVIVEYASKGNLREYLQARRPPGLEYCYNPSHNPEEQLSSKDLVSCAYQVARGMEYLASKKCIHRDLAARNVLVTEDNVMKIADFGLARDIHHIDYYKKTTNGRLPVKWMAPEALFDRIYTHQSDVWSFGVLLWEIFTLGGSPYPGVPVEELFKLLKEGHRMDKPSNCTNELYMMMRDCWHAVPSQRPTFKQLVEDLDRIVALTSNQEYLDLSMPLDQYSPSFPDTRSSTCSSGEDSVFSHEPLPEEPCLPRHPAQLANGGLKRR

Compound	IC50 [1]	IC50 [2, 4]	IC50 [3]	IC50 [2, 5]	IC50 [1, 6]	IC50 [3, 7]
COc1cc2[nH]nc(-c3ccc(C45CC4CN(C(=O)CO)C5)nc3)c2nc1-c1cccc2c1CCC2 (single isomer, unassigned) [Example 191C, 1-(1-(5-(5-(2,3-Dihydro-1H-inden-4-yl)-6-methoxy-1H-pyrazolo[4,3-b]pyridin-3-yl)pyridin-2-yl)-3-azabicyclo[3.1.0]hexan-3-yl)-2-hydroxyethan-1-one]	–	–	–	6 to 40 nM	< 6 nM	< 6 nM
COc1cc2[nH]nc(-c3cnn(C)c3)c2nc1-c1cccc2c1CCC2C#N (stereo not drawn) [Example 9, 4-(6-Methoxy-3-(1-methyl-1H-pyrazol-4-yl)-1H-pyrazolo[4,3-b]pyridin-5-yl)-2,3-dihydro-1H-indene-1-carbonitrile]	< 6 nM	40 to 100 nM	–	–	–	–
COc1cc2[nH]nc(-c3ccc(N4CC[C@H](N(C)C(=O)CO)C4)nc3)c2nc1-c1cccc(C)c1C [Example 88, (S)-N-(1-(5-(5-(2,3-Dimethylphenyl)-6-methoxy-1H-pyrazolo[4,3-b]pyridin-3-yl)pyridin-2-yl)pyrrolidin-3-yl)-2-hydroxy-N-methylacetamide]	< 6 nM	40 to 100 nM	–	–	–	–
COc1cc2[nH]nc(-c3cnn(C)c3)c2nc1-c1cccc2c1C[C@H](F)[C@@H]2O [Example 13, 2-Fluoro-4-(6-methoxy-3-(1-methyl-1H-pyrazol-4-yl)-1H-pyrazolo[4,3-b]pyridin-5-yl)-2,3-dihydro-1H-inden-1-ol]	< 6 nM	> 100 nM	–	–	–	–
COc1cc2[nH]nc(-c3ccc(N4CCN(C(C)=O)CC4)nc3)c2nc1-c1cccc(CC#N)c1C [Example 55, 2-(3-(3-(6-(4-Acetylpiperazin-1-yl)pyridin-3-yl)-6-methoxy-1H-pyrazolo[4,3-b]pyridin-5-yl)-2-methylphenyl)acetonitrile]	< 6 nM	> 100 nM	–	–	–	–
COc1cc2[nH]nc(-c3cnn(C4CCN(C(C)=O)CC4)c3)c2nc1-c1cccc(C)c1C [Example 69, 1-(4-(4-(5-(2,3-Dimethylphenyl)-6-methoxy-1H-pyrazolo[4,3-b]pyridin-3-yl)-1H-pyrazol-1-yl)piperidin-1-yl)ethan-1-one]	< 6 nM	> 100 nM	–	–	–	–
COc1cc2[nH]nc(-c3cnn(C4CC4)c3)c2nc1-c1cccc(C)c1C [Example 67, 3-(1-Cyclopropyl-1H-pyrazol-4-yl)-5-(2,3-dimethylphenyl)-6-methoxy-1H-pyrazolo[4,3-b]pyridine]	< 6 nM	> 100 nM	–	–	–	–
Cn1cc(-c2n[nH]c3cc(C(F)F)c(-c4cccc5c4CCC5)nc23)cn1 [Example 35, 6-(Difluoromethyl)-5-(2,3-dihydro-1H-inden-4-yl)-3-(1-methyl-1H-pyrazol-4-yl)-1H-pyrazolo[4,3-b]pyridine]	< 6 nM	40 to 100 nM	–	–	–	–
COc1cc2[nH]nc(-c3ccc(N4C[C@@H]5C[C@H]4CN5C)nc3)c2nc1-c1cccc(C)c1C [Example 49, 5-(2,3-Dimethylphenyl)-6-methoxy-3-(6-((1S,4S)-5-methyl-2,5-diazabicyclo[2.2.1]heptan-2-yl)pyridin-3-yl)-1H-pyrazolo[4,3-b]pyridine]	< 6 nM	40 to 100 nM	–	–	–	–
CCOc1cc2[nH]nc(-c3cnn(C)c3)c2nc1-c1cccc2c1CCC2 [Example 26, 5-(2,3-Dihydro-1H-inden-4-yl)-6-ethoxy-3-(1-methyl-1H-pyrazol-4-yl)-1H-pyrazolo[4,3-b]pyridine]	< 6 nM	> 100 nM	–	–	–	–
COC(=O)N1CC(n2cc(-c3n[nH]c4cc(OC)c(-c5cccc(C)c5C)nc34)cn2)C1 [Example 71, Methyl 3-(4-(5-(2,3-dimethylphenyl)-6-methoxy-1H-pyrazolo[4,3-b]pyridin-3-yl)-1H-pyrazol-1-yl)azetidine-1-carboxylate]	< 6 nM	> 100 nM	–	–	–	–
COc1cc2[nH]nc(-c3cnn(C)c3)c2nc1-c1cccc2c1CCC2O (single isomer, unassigned) [Example 8, 4-(6-Methoxy-3-(1-methyl-1H-pyrazol-4-yl)-1H-pyrazolo[4,3-b]pyridin-5-yl)-2,3-dihydro-1H-inden-1-ol]	–	> 100 nM	–	–	< 6 nM	–

More lines, now with the values ahead:

IC50 [1]	IC50 [2, 4]	IC50 [3]	IC50 [2, 5]	IC50 [1, 6]	IC50 [3, 7]	Compound
< 6 nM	40 to 100 nM	–	–	–	–	COc1cc2[nH]nc(-c3cnn([C@H]4CC[C@@H](NC(C)=O)CC4)c3)c2nc1-c1cccc2c1CCC2 [Example 53, N-((cis)-4-(4-(5-(2,3-Dihydro-1H-inden-4-yl)-6-methoxy-1H-pyrazolo[4,3-b]pyridin-3-yl)-1H-pyrazol-1-yl)cyclohexyl)acetamide]
< 6 nM	> 100 nM	< 6 nM	–	–	–	COc1cc2[nH]nc(-c3ccc(N4CCN(C)C(=O)C4)nc3)c2nc1-c1cccc(C)c1C [Example 45, 4-(5-(5-(2,3-Dimethylphenyl)-6-methoxy-1H-pyrazolo[4,3-b]pyridin-3-yl)pyridin-2-yl)-1-methylpiperazin-2-one]
< 6 nM	–	< 6 nM	6 to 40 nM	–	–	COc1cc2[nH]nc(-c3ccc(C4CCN(C(=O)CO)CC4)nc3)c2nc1-c1cccc2c1CC(F)C2 (stereo not drawn) [Example 82, 1-(4-(5-(5-(2-Fluoro-2,3-dihydro-1H-inden-4-yl)-6-methoxy-1H-pyrazolo[4,3-b]pyridin-3-yl)pyridin-2-yl)piperidin-1-yl)-2-hydroxyethan-1-one]
< 6 nM	40 to 100 nM	–	–	–	–	COc1cc2[nH]nc(-c3cnn(C)c3)c2nc1-c1cccc2c1CCC2O (single isomer, unassigned) [Example 7, 4-(6-Methoxy-3-(1-methyl-1H-pyrazol-4-yl)-1H-pyrazolo[4,3-b]pyridin-5-yl)-2,3-dihydro-1H-inden-1-ol]
< 6 nM	> 100 nM	< 6 nM	–	–	–	COc1cc2[nH]nc(-c3ccc(N4CCC(C(=O)N(C)C)CC4)nc3)c2nc1-c1cccc(C)c1C [Example 50, 1-(5-(5-(2,3-Dimethylphenyl)-6-methoxy-1H-pyrazolo[4,3-b]pyridin-3-yl)pyridin-2-yl)-N,N-dimethylpiperidine-4-carboxamide]
< 6 nM	40 to 100 nM	< 6 nM	–	–	–	COc1cc2[nH]nc(-c3cnn(Cc4ncnn4C)c3)c2nc1-c1cccc(C)c1C [Example 3, 5-(2,3-Dimethylphenyl)-6-methoxy-3-(1-((1-methyl-1H-1,2,4-triazol-5-yl)methyl)-1H-pyrazol-4-yl)-1H-pyrazolo[4,3-b]pyridine]
< 6 nM	40 to 100 nM	–	–	–	–	COc1cc2[nH]nc(-c3ccc(N4CCN(C)[C@H](C)C4)nc3)c2nc1-c1cccc(C)c1C [Example 47, (R)-5-(2,3-Dimethylphenyl)-3-(6-(3,4-dimethylpiperazin-1-yl)pyridin-3-yl)-6-methoxy-1H-pyrazolo[4,3-b]pyridine]
< 6 nM	> 100 nM	–	–	–	6 to 40 nM	COc1cc2[nH]nc(-c3ccc(N4CCN5C[C@H](O)C[C@H]5C4)nc3)c2nc1-c1ccccc1C1CC1 [Example 92, (7R,8aS)-2-(5-(5-(2-Cyclopropylphenyl)-6-methoxy-1H-pyrazolo[4,3-b]pyridin-3-yl)pyridin-2-yl)octahydropyrrolo[1,2-a]pyrazin-7-ol]
< 6 nM	> 100 nM	< 6 nM	–	–	–	COc1cc2[nH]nc(-c3ccc(N4CCN(C(C)=O)CC4)nc3)c2nc1-c1cccc(C)c1C [Example 43, 1-(4-(5-(5-(2,3-Dimethylphenyl)-6-methoxy-1H-pyrazolo[4,3-b]pyridin-3-yl)pyridin-2-yl)piperazin-1-yl)ethan-1-one]
< 6 nM	> 100 nM	–	–	–	–	COC(=O)N1CCC(n2cc(-c3n[nH]c4cc(OC)c(-c5cccc(C)c5C)nc34)cn2)CC1 [Example 70, Methyl 4-(4-(5-(2,3-dimethylphenyl)-6-methoxy-1H-pyrazolo[4,3-b]pyridin-3-yl)-1H-pyrazol-1-yl)piperidine-1-carboxylate]
< 6 nM	–	–	6 to 40 nM	–	–	COc1cc2[nH]nc(-c3ccc(N4CCN(C(C)=O)CC4)nc3)c2nc1-c1cccc2c1CCC2 [Example 64, 1-(4-(5-(5-(2,3-Dihydro-1H-inden-4-yl)-6-methoxy-1H-pyrazolo[4,3-b]pyridin-3-yl)pyridin-2-yl)piperazin-1-yl)ethan-1-one]
< 6 nM	40 to 100 nM	–	–	–	–	CCN1CCC(n2cc(-c3n[nH]c4cc(OC)c(-c5cccc6c5CCC6)nc34)cn2)C1 (stereo not drawn) [Example 15, 5-(2,3-Dihydro-1H-inden-4-yl)-3-(1-(1-ethylpyrrolidin-3-yl)-1H-pyrazol-4-yl)-6-methoxy-1H-pyrazolo[4,3-b]pyridine]
< 6 nM	40 to 100 nM	–	–	–	–	COc1cc2[nH]nc(-c3cnn(C4CCNC4)c3)c2nc1-c1cccc2c1CCC2 (stereo not drawn) [Example 14, 5-(2,3-Dihydro-1H-inden-4-yl)-6-methoxy-3-(1-(pyrrolidin-3-yl)-1H-pyrazol-4-yl)-1H-pyrazolo[4,3-b]pyridine]
< 6 nM	> 100 nM	–	–	–	–	COc1cc2[nH]nc(-c3cnn(-c4ccncc4)c3)c2nc1-c1cccc2c1CCC2 [Example 32, 5-(2,3-Dihydro-1H-inden-4-yl)-6-methoxy-3-(1-(pyridin-4-yl)-1H-pyrazol-4-yl)-1H-pyrazolo[4,3-b]pyridine]
< 6 nM	40 to 100 nM	–	–	–	–	COc1cc2[nH]nc(-c3ccc(N4CCN(C)CC4C)nc3)c2nc1-c1cccc2c1CCC2 (stereo not drawn) [Example 54, 5-(2,3-Dihydro-1H-inden-4-yl)-3-(6-(2,4-dimethylpiperazin-1-yl)pyridin-3-yl)-6-methoxy-1H-pyrazolo[4,3-b]pyridine]
< 6 nM	> 100 nM	–	–	–	–	CNc1cc2[nH]nc(-c3cnn(C)c3)c2nc1-c1cccc2c1CCC2 [Example 37, 5-(2,3-Dihydro-1H-inden-4-yl)-N-methyl-3-(1-methyl-1H-pyrazol-4-yl)-1H-pyrazolo[4,3-b]pyridin-6-amine]
